According to the CheMixHub viscosity set:

Test: xn = mol fraction of the nth substance listed

CCCCC(=O)O + CCCCCCCCCCO
viscosity [mPa·s], 100 kPa
Conditions | x1 = 0.0851 | x1 = 0.1742 | x1 = 0.2512 | x1 = 0.3616 | x1 = 0.4363 | x1 = 0.5587 | x1 = 0.6618 | x1 = 0.7474 | x1 = 0.8618 | x1 = 0.9312
293.15 K | 12.76 | 11.18 | 9.99 | 8.58 | 7.71 | 6.4 | 5.35 | 4.5 | 3.44 | 2.83
303.15 K | 8.73 | 7.68 | 6.9 | 5.97 | 5.41 | 4.56 | 3.89 | 3.35 | 2.65 | 2.25
313.15 K | 6.17 | 5.54 | 5.06 | 4.45 | 4.07 | 3.47 | 2.99 | 2.61 | 2.12 | 1.83
323.15 K | 4.49 | 4.09 | 3.79 | 3.38 | 3.12 | 2.7 | 2.37 | 2.1 | 1.75 | 1.55

NCCNCCN + CCCCCCCCCCO
viscosity [mPa·s], 101 kPa
Conditions | 298.15 K | 303.15 K | 308.15 K
x1 = 0.0564 | 12.02 | 9.924 | 8.366
x1 = 0.1003 | 12.52 | 10.34 | 8.775
x1 = 0.1543 | 12.81 | 10.46 | 8.862
x1 = 0.2007 | 12.75 | 10.39 | 8.738
x1 = 0.259 | 12.43 | 10.11 | 8.451
x1 = 0.3083 | 12 | 9.746 | 8.092
x1 = 0.4061 | 10.91 | 8.874 | 7.255
x1 = 0.5034 | 9.787 | 7.869 | 6.538
x1 = 0.6067 | 8.422 | 6.913 | 5.779
x1 = 0.7075 | 7.345 | 6.087 | 5.117
x1 = 0.8062 | 6.406 | 5.281 | 4.552
x1 = 0.852 | 6.037 | 4.932 | 4.298
x1 = 0.9067 | 5.656 | 4.678 | 4.065
x1 = 0.9524 | 5.499 | 4.556 | 3.897

CCCCC(=O)O + CCCCCCCCCO
viscosity [mPa·s], 100 kPa
Conditions | x1 = 0.0827 | x1 = 0.1635 | x1 = 0.2318 | x1 = 0.3519 | x1 = 0.4517 | x1 = 0.5569 | x1 = 0.6472 | x1 = 0.7328 | x1 = 0.8691 | x1 = 0.9502
293.15 K | 10.14 | 8.95 | 8.08 | 6.89 | 6.05 | 5.25 | 4.6 | 4 | 3.09 | 2.56
303.15 K | 6.95 | 6.12 | 5.53 | 4.73 | 4.16 | 3.64 | 3.22 | 2.86 | 2.32 | 2.03
313.15 K | 5.09 | 4.64 | 4.3 | 3.78 | 3.39 | 2.99 | 2.67 | 2.38 | 1.95 | 1.71
323.15 K | 3.76 | 3.47 | 3.26 | 2.92 | 2.66 | 2.39 | 2.17 | 1.96 | 1.64 | 1.46

CCCC[N+](CCCC)(CCCC)CCCC.[Br-] + CCCCCCCCCO
101.3 kPa, x1 = 0.2
Conditions | viscosity [mPa·s]
293.15 K | 56.57
298.15 K | 43.65
303.15 K | 35.27
308.15 K | 28.53
313.15 K | 23.29
318.15 K | 19.13
323.15 K | 15.99

CCCCC(=O)O + CCCCCCCCO
viscosity [mPa·s], 100 kPa
Conditions | x1 = 0.0831 | x1 = 0.1619 | x1 = 0.2381 | x1 = 0.3512 | x1 = 0.4418 | x1 = 0.5665 | x1 = 0.6539 | x1 = 0.7441 | x1 = 0.8551 | x1 = 0.9417
293.15 K | 8.14 | 7.31 | 6.64 | 5.83 | 5.25 | 4.52 | 4.04 | 3.56 | 2.99 | 2.55
303.15 K | 5.85 | 5.4 | 5.01 | 4.47 | 4.06 | 3.51 | 3.14 | 2.78 | 2.36 | 2.06
313.15 K | 4.28 | 3.97 | 3.7 | 3.33 | 3.06 | 2.7 | 2.46 | 2.21 | 1.93 | 1.71
323.15 K | 3.21 | 3.01 | 2.83 | 2.59 | 2.4 | 2.15 | 1.99 | 1.82 | 1.61 | 1.45

NCCNCCN + CCCCCCCCO
viscosity [mPa·s], 101 kPa
Conditions | 298.15 K | 303.15 K | 308.15 K
x1 = 0.0574 | 8.191 | 6.649 | 5.637
x1 = 0.1135 | 8.77 | 7.063 | 5.975
x1 = 0.1584 | 9.103 | 7.248 | 6.111
x1 = 0.2 | 9.198 | 7.3 | 6.14
x1 = 0.2521 | 9.202 | 7.268 | 6.096
x1 = 0.311 | 9.044 | 7.129 | 5.957
x1 = 0.4024 | 8.532 | 6.792 | 5.691
x1 = 0.5076 | 7.72 | 6.264 | 5.244
x1 = 0.6106 | 6.988 | 5.798 | 4.877
x1 = 0.7085 | 6.366 | 5.286 | 4.493
x1 = 0.8064 | 6.017 | 4.915 | 4.228
x1 = 0.8556 | 5.901 | 4.791 | 4.101
x1 = 0.9033 | 5.791 | 4.679 | 3.999
x1 = 0.9524 | 5.699 | 4.584 | 3.889
